Data taken from PMC9023165, “Antioxidant, Enzyme Inhibitory, and Molecular Docking Approaches to the Antidiabetic Potentials of Bioactive Compounds from Persicaria hydropiper L” (Evidence-based Complementary and Alternative Medicine : eCAM, 2022).
Converted amounts (≈) assume the structure as drawn. Read-outs that look alike come from different tables or passages of the source.

What was measured:
α-glucosidase enzyme = α-glucosidase enzyme (Saccharomyces cerevisiae, UniProt P53341); test: α-glucosidase inhibition assay; assay type: biochemical
Chain of α-glucosidase enzyme (P53341 whole entry): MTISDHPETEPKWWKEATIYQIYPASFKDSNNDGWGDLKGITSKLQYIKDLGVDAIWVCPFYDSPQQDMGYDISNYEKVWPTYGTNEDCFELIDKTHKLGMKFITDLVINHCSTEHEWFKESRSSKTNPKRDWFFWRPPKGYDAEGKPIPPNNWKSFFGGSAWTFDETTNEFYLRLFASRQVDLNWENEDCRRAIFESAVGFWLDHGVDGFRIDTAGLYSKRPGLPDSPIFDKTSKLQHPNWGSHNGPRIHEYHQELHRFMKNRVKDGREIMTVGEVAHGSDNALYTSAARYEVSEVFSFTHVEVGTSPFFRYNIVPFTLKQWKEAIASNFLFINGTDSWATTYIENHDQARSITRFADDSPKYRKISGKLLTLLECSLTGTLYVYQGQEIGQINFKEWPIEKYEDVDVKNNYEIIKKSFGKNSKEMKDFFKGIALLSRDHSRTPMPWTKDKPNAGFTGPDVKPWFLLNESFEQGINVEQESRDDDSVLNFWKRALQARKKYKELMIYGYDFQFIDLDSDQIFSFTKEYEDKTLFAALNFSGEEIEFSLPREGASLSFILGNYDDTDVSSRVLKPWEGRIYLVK
Experimental: For α-glucosidase inhibition assay, 50 µL solution containing 0.5 U·mL^−1 was added to 50 µL phosphate buffer (6.8 pH) and was added to various concentrations of test samples. The resultant mixture was properly mixed and stored at 37°C for fifteen min. After incubation, 100 µL (3 mM) pNPG solution was added to it. […] Absorption was measured at 405 nm using 96-well microplate reader. Absorption of mixture without addition of test samples was used as control and without substrate was used as blank. Percent inhibitions were calculated using the formula(3) % Inhibition=1−absorbance of sample−absorbance of blank/absorbance of control×100.

α-amylase enzyme = target: T1, α-amylase enzyme (Sus scrofa, UniProt P00690); test: α-amylase inhibition assay; assay type: biochemical; conditions: Mean ± SEM
T1 sequence (P00690 16-511): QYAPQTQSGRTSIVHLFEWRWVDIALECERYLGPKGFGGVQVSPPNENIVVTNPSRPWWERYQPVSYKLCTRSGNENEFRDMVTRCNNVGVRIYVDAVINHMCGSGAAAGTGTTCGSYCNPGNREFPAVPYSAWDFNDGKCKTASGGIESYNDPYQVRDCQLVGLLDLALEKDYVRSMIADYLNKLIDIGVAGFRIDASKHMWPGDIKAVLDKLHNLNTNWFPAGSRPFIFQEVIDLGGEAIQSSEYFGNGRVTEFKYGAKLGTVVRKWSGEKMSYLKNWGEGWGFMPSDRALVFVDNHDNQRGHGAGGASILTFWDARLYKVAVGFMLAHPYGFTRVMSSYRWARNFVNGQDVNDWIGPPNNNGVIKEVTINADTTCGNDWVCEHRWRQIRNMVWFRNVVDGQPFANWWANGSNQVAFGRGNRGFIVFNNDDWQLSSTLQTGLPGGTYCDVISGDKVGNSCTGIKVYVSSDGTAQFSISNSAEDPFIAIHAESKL
Experimental: Using this assay, a previously reported protocol was followed. […] Subsequently, 100 µL of 0.5 mg·mL^−1α-amylase solution was added to the mixture and again incubated for 10 min at 25°C. Reaction was stopped via the addition of 200 µL of dinitrosalicylic acid was added and incubated for an additional 5 min in boiling water bath and allowed to cool again. Finally, 50 µL solutions was transferred to 96-well microplate reader and further diluted to 200 µL via the addition of distilled water. Absorbencies were recorded at 540 nm and percent inhibitions were calculated using the equation(4) % Inhibition=1−Δ A Samples/Δ A Control×100.

DPPH antiradicals assay = test: DPPH antiradicals assay
Experimental: DPPH antiradicals study was conducted in accordance with our previously published protocol. Initially, 0.1% methanolic-DPPH solution was made and its 100 µL was mixed with same volume (100 µL) of test samples in 96-well plates, followed by incubation for about thirty min in a dark place 25 ± 3°C. […] Percent scavenging was estimated as follows:(1) % scavenging=A0−A1/A0×100.

ABTS antiradicals assay = test: ABTS antiradicals assay
Experimental: ABTS antiradicals' study was performed following our earlier reported protocol. For preparation of ABTS solution, 192 mg of ABTS salt was mixed in distilled water with subsequent transfer to fifty-milliliter flask and volume adjustments. Thereafter, 1 mL of the previous solution was added to 17 µL of 140 mM potassium persulphate and the mixture was left in the dark for 24 hours. Subsequently, 1 mL of the reaction mixture was diluted to 50 mL using methanol to obtain the final ABTS dilution used in the assay. Consequently, 190-microliter ABTS solution was added to 10 µL sample solutions and in 96-well plates and were incubated for 2 hrs in dark place at room temperature. After the incubation, decline in color intensity of ABTS was measured at 734 nm via microplate reader. […] Percent ABTS scavenging was determined using equation:(2) %ABTS scavenging=Control absorbance−Sample absorbance/Control absorbance×100.

SMILES | IC50 DPPH scavenging (DPPH antiradicals assay) | % scavenging effect against DPPH radicals (DPPH antiradicals assay; 1000 µg·mL^−1) | IC50 against ABTS radicals (ABTS antiradicals assay) | % inhibition against ABTS radicals (ABTS antiradicals assay; 1000 µg·mL^−1) | % scavenging effect against DPPH radicals (DPPH antiradicals assay; 31.25 µg·mL^−1) | % scavenging effect against DPPH radicals (DPPH antiradicals assay; 62.50 µg·mL^−1) | % scavenging effect against DPPH radicals (DPPH antiradicals assay; 125 µg·mL^−1) | % scavenging effect against DPPH radicals (DPPH antiradicals assay; 250 µg·mL^−1) | % scavenging effect against DPPH radicals (DPPH antiradicals assay; 500 µg·mL^−1) | further results
C[C@H]1O[C@H](O[C@H]2[C@H](O)[C@@H](O)[C@@H](O[C@H]3[C@H](O)[C@@H](O)C(O)O[C@@H]3CO)O[C@@H]2CO)[C@H](O)[C@@H](O)[C@@H]1N[C@H]1C=C(CO)[C@@H](O)[C@H](O)[C@H]1O (stereo partly drawn) [Acarbose] |  |  |  |  |  |  |  |  |  | α-Glucosidase inhibition assay % enzyme inhibition (α-glucosidase enzyme): 89.42 ± 0.55 77.52 ± 0.62 71. 36 ± 0.49 62.39 ± 0.49 55.47 ± 0.52%; α-Amylase Inhibition assay % enzyme inhibition (α-amylase enzyme; 62.50 µg·mL^−1): 59.36 ± 0.57%; α-Amylase Inhibition assay % enzyme inhibition (α-amylase enzyme; 125 µg·mL^−1): 65.48 ± 0.74%; α-Amylase Inhibition assay % enzyme inhibition (α-amylase enzyme; 250 µg·mL^−1): 73.62 ± 0.40%; α-Amylase Inhibition assay % enzyme inhibition (α-amylase enzyme; 500 µg·mL^−1): 78.60 ± 0.46%; α-Amylase Inhibition assay % enzyme inhibition (α-amylase enzyme; 1000 µg·mL^−1): 85.72 ± 0.66%
COc1cc(/C=C/c2ccccc2)oc(=O)c1 [Ph-6, (E)-4-methoxy-6-styryl-2H-pyran-2-one] | 910 µg/mL (≈ 3990 µM) | 44% | 550 µg/mL (≈ 2410 µM) | 61% |  |  |  |  |  | 
CCC(/C=C/C(C)C1CCC2C3CC=C4CC(O)CCC4(C)C3CCC12C)C(C)C (stereo not drawn) [Ph-2, (E)-17-(5-ethyl-6-methylhept-3-en-2-yl)-10,13-dimethyl-2,3,4,7,8,9,10,11,12,13,14,15,16,17-tetradecahydro-1H-cyclopenta[a]phenanthren-3-ol] | 200 µg/mL (≈ 485 µM) | 79.33% | 160 µg/mL (≈ 388 µM) | 80.63% | 11.83% | 21.33% | 34.16% | 59.66% | 68% | % inhibition against ABTS radicals (ABTS antiradicals assay; 31.25 µg·mL^−1): 17.44%; % inhibition against ABTS radicals (ABTS antiradicals assay; 62.5 µg·mL^−1): 27.88%; % inhibition against ABTS radicals (ABTS antiradicals assay; 125 µg·mL^−1): 42.89%; % inhibition against ABTS radicals (ABTS antiradicals assay; 250 µg·mL^−1): 60.56%; % inhibition against ABTS radicals (ABTS antiradicals assay; 500 µg·mL^−1): 72.68%
COC(=O)c1ccc(O)c(OC)c1 [Ph-4, methyl 4-hydroxy-3-methoxybenzoate] | 650 µg/mL (≈ 3570 µM) | 60.26% | 610 µg/mL (≈ 3350 µM) | 53.66% | 7.6% | 12.06% | 19.85% | 27.48% | 48.73% | 
O=C1O[C@H]([C@@H](O)CO)C(O)=C1O [ascorbic acid, reference compound] | 40 µg/mL (≈ 227 µM) | 91.80% |  |  | 45% | 56.83% | 62.33% | 72.85% | 83.33% | 
CC(=O)OC1COC(=O)C1C (stereo not drawn) [Ph-3, 4-methyl-5-oxo-tetrahydrofuran-3-yl acetate] | 550 µg/mL | 56% | 320 µg/mL | 67.16% | 9.2% | 18.5% | 29.66% | 33.33% | 42% | 
CCOc1cc(C(C)=O)c2cc(OC)ccc2c1 [Ph-5, 1-(3-ethoxy-7-methoxynaphthalen-1-yl)ethanone] | 390 µg/mL (≈ 1600 µM) | 58.33% | 350 µg/mL (≈ 1430 µM) | 69.16% |  |  |  |  |  | IC50 against ABTS radicals (ABTS antiradicals assay; in Figure 3): 390 µg/mL (≈ 1600 µM)
